The record followed here is paper PMC5361735, “Characterization and mechanisms of anti-influenza virus metabolites isolated from the Vietnamese medicinal plant Polygonum chinense” (BMC Complementary and Alternative Medicine, 2017).

For data set [1], the system named is B/Lee/40 (Lee). Kind of data set: microbe, parasite or virus in culture. The following applies: Influenza B virus, MDCK, 72 h, read-out: EC50 Lee.
The test system of data set [2] is A/Hong Kong/8/68 (H3N2, HK). The following applies: for S.I. (CC50/EC50) HK: Table 2; for EC50: read-out: EC50 HK.
The test system of data set [3] is A/Puerto Rico/8/34 (H1N1, PR8). Kind of data set: microbe, parasite or virus in culture. The following applies: Influenza A virus, MDCK, 72 h, read-out: EC50 PR8.
Data set [4] has as its system A/Hong Kong/8/68 (H3N2, HK). The data set can be described thus: microbe, parasite or virus in culture. The following applies: Influenza A virus, H3N2, MDCK, 72 h, read-out: EC50 HK.
The subject of data set [5] is MDCK cells. Kind of data set: Cell viability (MTT) of mock-infected MDCK cells. The following applies: 300 μg/mL.
A short description of data set [6]: Cell viability (MTT) of mock-infected MDCK cells. The following applies: dog, mock-infected MDCK cells.
Data set [7] concerns B/Lee/40 (Lee). The following applies: for S.I. (CC50/EC50) Lee: Table 2.
Data set [8] deals with A/Puerto Rico/8/34 (H1N1, PR8). The following applies: Table 2.
Another data set is described as follows: in vitro. The following applies: dog.
Data set [9] has as its system influenza viruses PR8, HK and Lee. Kind of data set: CPE inhibition assay, results stated over all strains. It counts as cell-based, influenza A and B viruses. The following applies: for EC50: Influenza A virus, PR8, range over the strains (and compounds named).
The subject of data set [10] is MDCK cells. The following applies: dog, 3 days, 300 μg/mL.
Data set [11] deals with influenza viruses PR8, HK and Lee. The following applies: for inhibition of plaque formation: MOI 0.001, 3 days, crystal violet.
Description: MDCK cells seeded in 48-well plates were infected with the influenza viruses at an MOI of 0.001 for 1 h at 33 °C (PR8) or 35 °C (HK and Lee). Test compounds and reference antiviral compounds were serially diluted in overlay medium [MEM containing 0.5% carboxymethylcellulose (CMC; Sigma) and 2 μg/mL TPCK-trypsin]. After washing with PBS, the cells were treated with the compounds in the overlay medium for 3 days at the temperature used for virus infection. Viral plaques were counted by staining with crystal violet [20].
For the next data set, the system named is PR8 virus (viral NP). Type of data set: cell-based, influenza A virus.
The next data set concerns PR8. Kind of data set: Time-of-addition plaque assay. It counts as cell-based, influenza A virus.
The mark [12] stands for this setting: CPE inhibition assay, PR8, HK and Lee.

Values after ≈ are worked out from the molar mass of the structure shown. Like-named read-outs stand apart in the source and are kept apart here.

As a reminder, the EC50 is the concentration at which the effect is half-maximal. `O=c1c(O)c(-c2ccc(O)c(O)c2)oc2cc(O)cc(O)c12` [PC1, Quercetin]: the EC50 stood at 15 µg/mL in the data set with B/Lee/40 (Lee) [1], 12.6 µg/mL (≈ 41.7 µM) in data set [3] and 13.1 µg/mL in data set [4]. Further, in [2], the “S.I. (CC50/EC50) HK” value is greater than 22.9. In the data set on MDCK cells [5], the “cytotoxicity to MDCK cells at the highest concentration” value is “without cytotoxicity”. In [6], this molecule gave a CC50 at 3 days greater than 300 µg/mL. The “S.I. (CC50/EC50) Lee” value with B/Lee/40 (Lee) [7] is greater than 20.0.
On to `CC[C@H](CC[C@@H](C)[C@H]1CC[C@H]2[C@@H]3CC=C4C[C@@H](O)CC[C@]4(C)[C@H]3CC[C@]12C)C(C)C` [PC6, β-Sitosterol], for which the “S.I. (CC50/EC50) PR8” value in data set [8] is 1.1. The EC50 with B/Lee/40 (Lee) [1] was greater than 300 µg/mL; in data set [3] it was 282 µg/mL (≈ 679 µM); in [4], 300 µg/mL. The “S.I. (CC50/EC50) HK” value in data set [2] was found to be 1.0. Further, the CC50 in the data set “in vitro” turned out to be 300 µg/mL (≈ 723 µM). Moreover, the “anti-influenza activity in words” value in [9] (setting [12]) is given as “marginal or no anti-influenza activity”.
`COC(=O)c1ccc(O)c(O)c1` [PC2, Protocatechuic acid methyl ester]: the figures for the EC50 (in the data set on B/Lee/40 (Lee) [1]; in data set [3]; in data set [4]) were 11.1 µg/mL, greater than 24.1 µg/mL and greater than 24.1 µg/mL, respectively. The molecule also gave a CC50 at 3 days in the data set “in vitro” of 24.1 µg/mL. Besides, the “S.I. (CC50/EC50) Lee” value in the data set on B/Lee/40 (Lee) [7] worked out at 2.2.
Take `COC(=O)c1cc(O)c(O)c(O)c1` [PC7, Methyl gallate]: in data set [8], the “S.I. (CC50/EC50) PR8” value was greater than 16.6. For the same molecule, the EC50 in the data set with B/Lee/40 (Lee) [1] was 19.2 µg/mL; in data set [3], 18.1 µg/mL (≈ 98.3 µM); in data set [4] it was 17.1 µg/mL; in data set [9] (CPE inhibition assay), 14.7 to 81.1 µg/mL (≈ 79.8 to 440 µM). Moreover, the “S.I. (CC50/EC50) HK” value in [2] was greater than 17.5. For the same molecule, the “reduction of cell viability” value with MDCK cells [10] amounted to 49%. Besides, in data set [11] (MDCK cells, concentrations higher than 33 μg/mL), the “cytotoxicity seen as faint crystal violet background” value is given as “marginal cytotoxicity”. Besides, the “inhibition of plaque formation” value in [11] was “inhibited plaque formation of influenza A and B viruses in a dose-dependent manner”. The same molecule registered a CC50 at 3 days in “in vitro” greater than 300 µg/mL. In addition, the “effect on viral NP production/localization” value in the data set with PR8 virus (viral NP) is “inhibit the early steps”. The “effect on plaques, pre-treatment” value with PR8 is “no inhibition”. Moreover, the “plaque reduction, co-treatment” value with PR8 is “about 35%”. Also, in the data set on PR8, the “reduction of viral infectivity, post-treatment” value was found to be 15%. Moreover, the “S.I. (CC50/EC50) Lee” value in the data set with B/Lee/40 (Lee) [7] is on record as greater than 15.6.
As for `NC(=O)c1ncn([C@@H]2O[C@H](CO)[C@@H](O)[C@H]2O)n1` [RBV, ribavirin, reference compound], the EC50 turned out to be 26.6 µM in the data set with B/Lee/40 (Lee) [1], 15.5 µM in data set [2], 20.5 µM in data set [4] and 17 µM in the data set on B/Lee/40 (Lee) [7] (read-out: EC50 Lee). In addition, the “anti-influenza activity in words” value in data set [9] is given as “efficiently inhibited the replication of all viral strains tested”.
In the case of `CCC(CC)O[C@@H]1C=C(C(=O)O)C[C@H](N)[C@H]1NC(C)=O` [OSV-C, oseltamivir carboxylate, reference compound], the values for the EC50 in data set [2] and in [4] were less than 0.005 µM and 0.005 µM, respectively. This molecule showed a CC50 at 3 days in the data set “in vitro” greater than 100 µM. Besides, the “anti-influenza activity in words” value in [9] (setting [12]) was “efficiently inhibited the replication of all viral strains tested”.
Turning to `O=c1oc2c(O)c(O)cc3c(=O)oc4c(O)c(O)cc1c4c23` [PC5, Ellagic acid], the “S.I. (CC50/EC50) PR8” value in [8] is listed as greater than 3.7. The EC50 in the data set with B/Lee/40 (Lee) [1] is 79.2 µg/mL; in [3], 81.1 µg/mL (≈ 268 µM); in [4], 62.4 µg/mL; in [9] (CPE inhibition assay), 14.7 to 81.1 µg/mL (≈ 48.6 to 268 µM). For the same molecule, in data set [2], the “S.I. (CC50/EC50) HK” value was greater than 4.8. Also, the “inhibition of plaque formation” value in data set [11] was “inhibited plaque formation of influenza A and B viruses in a dose-dependent manner”. Further, the “effect on viral NP production/localization” value in the data set on PR8 virus (viral NP) is reported as “inhibit the early steps”. For the same molecule, the “effect on plaques, co-treatment” value in the data set on PR8 is reported as “plaque reduction was more distinct”. Further, in the data set on PR8, the “effect on plaques, post-treatment” value was “reduced viral plaque titers”. The “effect on plaques, pre-treatment” value in the data set on PR8 is given as “reduced viral plaque titers”. For the same molecule, the CC50 at 3 days in [6] was greater than 300 µg/mL. Also, in the data set with B/Lee/40 (Lee) [7], the “S.I. (CC50/EC50) Lee” value is recorded as greater than 3.8.
As to `O=C(O)/C=C/c1ccc(O)c(O)c1` [PC8, Caffeic acid], the “S.I. (CC50/EC50) PR8” value in [8] was greater than 7.9. For the same molecule, the concentration for a half-maximal effect (EC50) in the data set on B/Lee/40 (Lee) [1] is 14.7 µg/mL; in data set [3], 37.8 µg/mL (≈ 210 µM); in data set [4], 32.1 µg/mL; in data set [9] (CPE inhibition assay), 14.7 to 81.1 µg/mL (≈ 81.6 to 450 µM). Besides, the “S.I. (CC50/EC50) HK” value in data set [2] is given as greater than 9.4. Also, the “inhibition of plaque formation” value in data set [11] was “inhibited plaque formation of influenza A and B viruses in a dose-dependent manner”. The “effect on viral NP production/localization” value with PR8 virus (viral NP) was “did not affect NP signal intensity or its localization”. For the same molecule, the “effect on plaques, co-treatment” value in the data set on PR8 was “barely showed the efficacy at the maximum concentration”. In addition, in the data set with PR8, the “effect on plaques, post-treatment” value is “no significant antiviral activity”. Also, the “effect on plaques, pre-treatment” value with PR8 is “no significant antiviral activity”. In addition, the “cytotoxicity to MDCK cells at the highest concentration” value in the data set on MDCK cells [5] is “without cytotoxicity”. The molecule also came in with a CC50 at 3 days in data set [6] greater than 300 µg/mL. In the data set with B/Lee/40 (Lee) [7], the “S.I. (CC50/EC50) Lee” value was greater than 20.4.
For `O=C(O)c1cc(O)c(O)c(O)c1` [PC3, Gallic acid], the EC50 in data set [4] came out at 17.5 µg/mL. In the data set “in vitro”, this molecule gave a CC50 of 111 µg/mL (≈ 653 µM).
